# Experimental data from patent US10660877B2 (BRISTOL-MYERS SQUIBB COMPANY, priority 2016, dated 2020).
# Assays:
# [1] = tested on: TLR7; assay: In vivo mouse TLR7 PD model (gardiquimod challenge, plasma IL-6); design: species or system C57BL/6 mice; conditions: oral
# Protocol: In Vivo Mouse TLR7 and TLR9 PD Model:
# (§1) Adult male C57BL/6 mice were used for the experiments. Mice (7 to 10 per group) were randomized into different treatment groups based on body weight. Mice from the respective treatment groups were administered orally with vehicle or test compound. Thirty min after the oral administration of vehicle or test compound, mice were challenged with intraperitoneal injection of gardiquimod for TLR7 PD model and CpG-ODN for TLR9 PD model. Ninety minutes after gardiquimod injection and 120 minutes after CpG-ODN injection, mice were bled under isoflurane anaesthesia and plasma IL-6 level was estimated by using commercially available ELISA kit (BD Biosciences). At the end of experiment, mean cytokine data was plotted and one way ANOVA with Dunnett's test was performed to calculate the significance of test compound treated group vs. vehicle control group. Percent inhibition of cytokine induction was calculated for test compound treated group vs vehicle control group.
# [2] = target: human TLR7 (Homo sapiens (Human), UniProt Q9NYK1); assay: TLR7 inhibition reporter assay (HEK-Blue cells, SEAP reporter, gardiquimod stimulation); type: cell-based; conditions: HEK-Blue cells overexpressing human TLR7, gardiquimod 7.5 μM
# Chain of human TLR7 (Q9NYK1 27-1049): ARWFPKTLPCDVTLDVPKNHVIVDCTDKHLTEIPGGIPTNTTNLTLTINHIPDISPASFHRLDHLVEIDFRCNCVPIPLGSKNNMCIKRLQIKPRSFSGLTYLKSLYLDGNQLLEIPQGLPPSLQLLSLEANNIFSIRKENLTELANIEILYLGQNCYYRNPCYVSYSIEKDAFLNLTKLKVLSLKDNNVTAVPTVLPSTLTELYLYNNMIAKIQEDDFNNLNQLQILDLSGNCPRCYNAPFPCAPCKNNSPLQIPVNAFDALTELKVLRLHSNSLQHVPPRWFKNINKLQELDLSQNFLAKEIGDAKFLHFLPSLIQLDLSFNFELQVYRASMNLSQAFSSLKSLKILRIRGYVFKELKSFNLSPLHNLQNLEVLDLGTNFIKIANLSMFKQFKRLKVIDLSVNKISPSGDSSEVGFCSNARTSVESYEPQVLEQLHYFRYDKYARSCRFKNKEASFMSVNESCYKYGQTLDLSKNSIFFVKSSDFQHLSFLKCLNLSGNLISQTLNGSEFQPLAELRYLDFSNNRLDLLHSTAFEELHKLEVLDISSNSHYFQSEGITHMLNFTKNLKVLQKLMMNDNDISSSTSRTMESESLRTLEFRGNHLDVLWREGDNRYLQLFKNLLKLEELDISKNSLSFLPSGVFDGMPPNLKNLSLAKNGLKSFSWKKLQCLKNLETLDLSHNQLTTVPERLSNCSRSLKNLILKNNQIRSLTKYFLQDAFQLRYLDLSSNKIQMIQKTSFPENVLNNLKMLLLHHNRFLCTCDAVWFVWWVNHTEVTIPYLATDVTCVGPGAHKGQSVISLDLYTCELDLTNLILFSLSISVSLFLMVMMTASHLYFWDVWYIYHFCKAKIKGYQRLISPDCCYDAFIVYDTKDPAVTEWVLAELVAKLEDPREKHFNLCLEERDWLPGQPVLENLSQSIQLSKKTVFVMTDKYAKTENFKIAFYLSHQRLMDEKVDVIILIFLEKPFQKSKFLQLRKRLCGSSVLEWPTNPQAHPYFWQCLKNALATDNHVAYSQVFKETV
# [3] = target: human TLR8 (Homo sapiens (Human), UniProt Q9NR97); assay: TLR8 inhibition reporter assay (HEK-Blue cells, SEAP reporter, R848 stimulation); conditions: read-out: TLR8 IC50, HEK-Blue cells overexpressing human TLR8, R848 15.9 μM;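 further: compounds tested from 0.05 nM to 50 µM, 22 h at 37 °C, SEAP measured with HEK-Blue Detection, inhibition relative to agonist plus DMSO versus a known inhibitor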
# Chain of human TLR8 (Q9NR97 27-1041): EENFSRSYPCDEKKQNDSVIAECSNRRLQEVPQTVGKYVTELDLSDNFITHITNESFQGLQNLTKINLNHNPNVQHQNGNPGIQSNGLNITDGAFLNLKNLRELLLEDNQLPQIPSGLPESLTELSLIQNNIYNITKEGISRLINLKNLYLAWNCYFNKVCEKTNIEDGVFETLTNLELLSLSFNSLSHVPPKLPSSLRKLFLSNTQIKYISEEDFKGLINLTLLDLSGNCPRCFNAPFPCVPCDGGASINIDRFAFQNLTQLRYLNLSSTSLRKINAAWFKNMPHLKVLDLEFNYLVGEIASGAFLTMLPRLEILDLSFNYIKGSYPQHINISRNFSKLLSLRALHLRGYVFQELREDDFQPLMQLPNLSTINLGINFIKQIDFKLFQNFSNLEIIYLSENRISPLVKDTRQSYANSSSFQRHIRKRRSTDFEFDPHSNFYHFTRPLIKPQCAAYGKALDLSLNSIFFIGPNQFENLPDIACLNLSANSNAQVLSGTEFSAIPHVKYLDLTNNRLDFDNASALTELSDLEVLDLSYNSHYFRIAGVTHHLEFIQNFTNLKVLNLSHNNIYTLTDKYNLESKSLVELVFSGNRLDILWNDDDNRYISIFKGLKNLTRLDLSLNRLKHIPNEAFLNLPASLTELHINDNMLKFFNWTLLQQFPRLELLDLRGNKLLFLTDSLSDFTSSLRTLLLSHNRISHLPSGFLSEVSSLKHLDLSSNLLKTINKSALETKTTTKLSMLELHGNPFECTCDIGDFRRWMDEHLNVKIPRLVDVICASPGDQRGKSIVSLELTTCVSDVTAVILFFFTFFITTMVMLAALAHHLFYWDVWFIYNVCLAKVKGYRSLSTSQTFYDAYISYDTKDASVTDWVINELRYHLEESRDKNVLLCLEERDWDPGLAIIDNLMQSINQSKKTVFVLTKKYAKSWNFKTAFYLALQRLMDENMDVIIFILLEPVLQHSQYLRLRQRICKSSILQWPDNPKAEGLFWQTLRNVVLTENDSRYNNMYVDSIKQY
# [4] = target: human TLR9 (Homo sapiens (Human), UniProt Q9NR96); assay: TLR9 inhibition reporter assay (HEK-Blue cells, SEAP reporter, ODN2006 stimulation); conditions: read-out: TLR9 IC50, HEK-Blue cells overexpressing human TLR9, ODN2006 5 nM;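 further: compounds tested over 0.05 nM to 50 µM, 22 h incubation, inhibition taken as SEAP signal drop from agonist plus DMSO wells toward a known inhibitor control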
# Chain of human TLR9 (Q9NR96 26-1032): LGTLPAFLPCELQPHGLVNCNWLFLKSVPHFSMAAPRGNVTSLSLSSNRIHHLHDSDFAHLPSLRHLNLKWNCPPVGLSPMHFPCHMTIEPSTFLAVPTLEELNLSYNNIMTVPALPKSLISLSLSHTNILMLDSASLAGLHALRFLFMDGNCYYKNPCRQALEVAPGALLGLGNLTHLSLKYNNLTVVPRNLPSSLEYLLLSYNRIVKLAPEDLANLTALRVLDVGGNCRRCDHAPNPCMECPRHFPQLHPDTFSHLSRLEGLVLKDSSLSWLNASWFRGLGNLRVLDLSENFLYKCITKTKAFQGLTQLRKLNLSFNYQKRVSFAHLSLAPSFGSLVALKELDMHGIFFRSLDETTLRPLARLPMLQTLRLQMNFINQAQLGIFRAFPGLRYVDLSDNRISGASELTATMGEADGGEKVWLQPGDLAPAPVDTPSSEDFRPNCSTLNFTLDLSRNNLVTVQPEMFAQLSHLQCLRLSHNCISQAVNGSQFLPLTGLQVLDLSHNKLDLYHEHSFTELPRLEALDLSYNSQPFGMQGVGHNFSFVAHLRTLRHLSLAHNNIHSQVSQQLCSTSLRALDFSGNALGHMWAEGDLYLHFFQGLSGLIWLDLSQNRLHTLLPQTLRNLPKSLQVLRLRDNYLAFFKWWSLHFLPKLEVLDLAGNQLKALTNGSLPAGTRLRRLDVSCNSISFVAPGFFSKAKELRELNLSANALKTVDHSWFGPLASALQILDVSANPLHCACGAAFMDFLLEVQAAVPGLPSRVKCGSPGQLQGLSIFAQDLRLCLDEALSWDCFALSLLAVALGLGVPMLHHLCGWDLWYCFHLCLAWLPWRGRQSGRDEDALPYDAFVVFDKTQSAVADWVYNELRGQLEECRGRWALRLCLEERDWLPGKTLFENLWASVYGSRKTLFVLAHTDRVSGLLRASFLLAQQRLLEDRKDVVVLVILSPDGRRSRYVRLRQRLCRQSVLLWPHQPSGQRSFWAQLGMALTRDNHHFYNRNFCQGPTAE
# [5] = tested on: MRL/lpr mice; assay: MRL/lpr model of systemic lupus erythematosus (proteinuria, urinary NGAL, anti-dsDNA Ab titer, lymphadenopathy); type: in vivo, mouse; conditions: oral once daily
# Protocol: MRL/lpr Model of Systemic Lupus Erythematosus (SLE) Male MRL/lpr mice of 12-14 weeks age were screened and randomized based on the titers of anti-dsDNA antibodies and urinary NGAL (Neutrophil Gelatinase Associated Lipocalin). Mice were treated orally, once daily for 8 weeks with vehicle or test compound. The effect of test compound on disease severity was assessed by measuring end points including proteinuria, urinary-NGAL, anti-dsDNA Ab titer, and lymphadenopathy. These end points were assessed before the start of treatment and after 4 and 8 weeks of treatment. At the end of experiment, all mice were euthanized by CO2 asphyxiation and kidney samples were subjected for histology. At the end of experiment, one way ANOVA with Dunnett's test was performed to calculate the significance of test compound treated group vs. vehicle control group. Percent reduction in disease severity was calculated for each parameter, for test compound treated group vs vehicle control group.
# [6] = tested on: TLR9; assay: In vivo mouse TLR9 PD model (CpG-ODN challenge, plasma IL-6); design: species or system C57BL/6 mice; conditions: oral
# Protocol: as §1, with “In Vivo Mouse TLR7 and TLR9 PD Model: Adult” for “Adult”
compound,measurement,setting,value
"Cc1cc(-c2[nH]c3ccc(C4CCN(CC(=O)N(C)C)CC4)cc3c2C(C)C)cc(C)n1 [Example 308, 2-(4-(2-(2,6-dimethylpyridin-4-yl)-3-isopropyl-1H-indol-5-yl)piperidin-1-yl)-N,N-dimethylacetamide]",% inhibition of IL6,[1]; 0.002 mg/kg,30%
same,% inhibition of IL6,[1]; 0.008 mg/kg,47%
same,% inhibition of IL6,[1]; 0.032 mg/kg,81%
same,% inhibition of IL6,[1]; 0.160 mg/kg,98%
same,IC50,[2],0.0015 µM
same,IC50,[3],0.0043 µM
same,IC50,[4],0.359 µM
"CNC(=O)CN1CCC(c2ccc3[nH]c(-c4cc(C)nc(C)c4)c(C(C)C)c3c2)CC1 [Example 309, 2-(4-(2-(2,6-dimethylpyridin-4-yl)-3-isopropyl-1H-indol-5-yl)piperidin-1-yl)-N-methylacetamide]",% inhibition of IL6,[1]; 0.0005 mg/kg,12%
same,% inhibition of IL6,[1]; 0.005 mg/kg,65%
same,% inhibition of IL6,[1]; 0.05 mg/kg,89%
same,% inhibition of IL6,[1]; 0.25 mg/kg,91%
same,IC50,[2],0.002 µM
same,IC50,[3],0.0055 µM
same,IC50,[4],0.789 µM
"Cc1cc(-c2[nH]c3ccc(C4CCNCC4)cc3c2C(C)C)cc(C)n1.Cl [Example 1, 2-(2,6-dimethylpyridin-4-yl)-3-isopropyl-5-(piperidin-4-yl)-1H-indole hydrochloride]",% inhibition of IL6,[1]; 0.03 mg/kg,28%
same,% inhibition of IL6,[1]; 0.05 mg/kg,66%
same,% inhibition of IL6,[1]; 0.5 mg/kg,98%
same,IC50,[2],0.0007 µM
same,IC50,[3],0.0032 µM
same,% inhibition Anti-dsDNA antibody titer,[5]; 0.1 mg/kg,1%
same,% inhibition IL-10,[5]; 0.1 mg/kg,24%
same,% inhibition IL-12p40,[5]; 0.1 mg/kg,12%
same,% inhibition Lymphadenopathy,[5]; 0.1 mg/kg,3%
same,% inhibition Proteinuria,[5]; 0.1 mg/kg,69%
same,% inhibition Urinary NGAL,[5]; 0.1 mg/kg,52%
same,% inhibition Anti-dsDNA antibody titer,[5]; 1 mg/kg,14%
same,% inhibition IL-10,[5]; 1 mg/kg,32%
same,% inhibition IL-12p40,[5]; 1 mg/kg,26%
same,% inhibition Lymphadenopathy,[5]; 1 mg/kg,31%
same,% inhibition Proteinuria,[5]; 1 mg/kg,92%
same,% inhibition Urinary NGAL,[5]; 1 mg/kg,69%
same,% inhibition Anti-dsDNA antibody titer,[5]; 5 mg/kg,20%
same,% inhibition IL-10,[5]; 5 mg/kg,39%
same,% inhibition IL-12p40,[5]; 5 mg/kg,30%
same,% inhibition Lymphadenopathy,[5]; 5 mg/kg,33%
same,% inhibition Proteinuria,[5]; 5 mg/kg,92%
same,% inhibition Urinary NGAL,[5]; 5 mg/kg,72%
same,% inhibition Anti-dsDNA antibody titer,[5]; 20 mg/kg,53%
same,% inhibition IL-10,[5]; 20 mg/kg,53%
same,% inhibition IL-12p40,[5]; 20 mg/kg,35%
same,% inhibition Lymphadenopathy,[5]; 20 mg/kg,53%
same,% inhibition Proteinuria,[5]; 20 mg/kg,93%
same,% inhibition Urinary NGAL,[5]; 20 mg/kg,81%
same,% inhibition of IL6,[6]; 1 mg/kg,16%
same,% inhibition of IL6,[6]; 3 mg/kg,29%
same,% inhibition of IL6,[6]; 10 mg/kg,33%
same,% inhibition of IL6,[6]; 30 mg/kg,38%
"Cc1cc(-c2[nH]c3ccc(C4CCN(CCCO)CC4)cc3c2C(C)C)cc(C)n1 [Example 311, 3-(4-(2-(2,6-dimethylpyridin-4-yl)-3-isopropyl-1H-indol-5-yl)piperidin-1-yl)propan-1-ol]",IC50,[2],0.0018 µM
same,IC50,[3],0.0025 µM
same,IC50,[4],0.27 µM
"COCC(=O)N1CCC(c2ccc3[nH]c(-c4cc(C)nc(C)c4)c(C(C)C)c3c2)CC1 [Example 115, 1-(4-(2-(2,6-dimethylpyridin-4-yl)-3-isopropyl-1H-indol-5-yl)piperidin-1-yl)-2-methoxyethan-1-one]",IC50,[2],0.0054 µM
same,IC50,[3],0.131 µM
same,IC50,[4],44.6 µM
"CC(C)c1c(-c2ccnc(CO)c2)[nH]c2ccc(C3CCNCC3)cc12 [Example 22, (4-(3-isopropyl-5-(piperidin-4-yl)-1H-indol-2-yl)pyridin-2-yl)methanol]",IC50,[2],0.0806 µM
same,IC50,[3],0.075 µM
same,IC50,[4],1.5 µM
"Cc1cc(-c2[nH]c3ccc(C4CCN(CCOc5ccccc5)CC4)cc3c2C(C)C)ccn1 [Example 663, 3-isopropyl-2-(2-methylpyridin-4-yl)-5-(1-(2-phenoxyethyl)piperidin-4-yl)-1H-indole]",IC50,[2],0.112 µM
same,IC50,[3],0.0312 µM
same,IC50,[4],1.1 µM
"Cc1cc(-c2[nH]c3ccc(C4CCN(CC(=O)N(C)C(C)(C)C)CC4)cc3c2C(C)C)cc(C)n1 [Example 250, N-(tert-butyl)-2-(4-(2-(2,6-dimethylpyridin-4-yl)-3-isopropyl-1H-indol-5-yl)piperidin-1-yl)-N-methylacetamide]",IC50,[2],0.0117 µM
same,IC50,[3],0.0364 µM
same,IC50,[4],1.2 µM
"CC(=O)Nc1ccc(S(=O)(=O)N2CCC(c3ccc4[nH]c(-c5ccnc(C)c5)c(C(C)C)c4c3)CC2)cc1 [Example 552, N-(4-((4-(3-isopropyl-2-(2-methylpyridin-4-yl)-1H-indol-5-yl)piperidin-1-yl)sulfonyl)phenyl)acetamide]",IC50,[2],0.13 µM
same,IC50,[3],0.111 µM
same,IC50,[4],> 50 µM
